Tests used:
[1] = Selection of enhancers: inhaled insulin/enhancer powder in rat model, blood glucose levels; assay type: in vivo; conditions: for Effect (decrease in blood glucose level): rat, inhalation; for usefulness as enhancer of insulin absorption in the lung: tested as enhancer in the method of the invention, rat model; on Effect (decrease in blood glucose level): key: +: significant decrease in blood glucose level; (+): moderate decrease in blood glucose level; −: no or very small decrease in blood glucose level
Description: Each of the compounds listed in Table III was tested for its ability to enhance uptake of insulin, and thus affect blood glucose levels, in a rat model. Various forms of insulin were employed: recombinant or semisynthetic human or bovine. […] The powder was administered to rats by inhalation, and the blood glucose levels of the rats were subsequently monitored. These levels were compared to the corresponding values obtained from rats which had inhaled insulin formulations without enhancer.

[2] = Insulin combined with sodium caprate in various w/w proportions, in vivo models
Source text: In general, it is desirable to keep the ratio of insulin to enhancer as high as possible, within the range that permits fast and efficient enhancement of insulin absorption. This is important in order to minimize the risk of adverse effects, both local and systemic, attributable to the enhancer. The optimal ratio of insulin to enhancer can be ascertained for any given enhancer by testing various proportions in in vivo models such as described herein. For example, insulin was combined with sodium caprate in the following w/w proportions: 50/50, 75/25, 82.5/17.5, and 90/10. […] Other enhancers may have higher or lower optimal concentrations relative to insulin, and each individual enhancer must therefore be separately tested.

CaCo-2 cell monolayer = test: In vitro CaCo-2 epithelial cell monolayer transport assay; assay type: in vitro ADME
Source text: A standard in vitro assay utilizing an epithelial cell line, CaCo-2 (available through the American Type Culture Collection (ATCC), Rockville, Md., USA), has been developed to assess the ability of various enhancer compounds to promote transport of insulin and other markers across an epithelial cell monolayer, as a model for the epithelial cell layer which functions in the lung to separate the alveolus from the pulmonary blood supply. In this assay, the enhancer and insulin or other marker are dissolved in aqueous solution at various proportions and/or concentrations, and applied to the apical side of the cell monolayer. After 60 min incubation at 37° C. and 95% RH (relative humidity), the amount of the marker on the basolateral side of the cells is determined: for example, by use of a radioactively labelled marker. […] This concentration of sodium caprate (16 mM) was also found to promote absorption of insulin across the cell monolayer. The amount of insulin which passed across the monolayer doubled in the presence of 16 mM sodium caprate, compared to the amount in the absence of any enhancer. It is expected that at higher concentrations of sodium caprate, the permeability of the cells will be further increased; however, the potential cytotoxicity of sodium caprate may prevent the use of substantially higher concentrations of this particular enhancer.

[3] = Enhancer:Insulin:lactose 2:4:94
[4] = Enhancer:Insulin:lactose 4:4:92
[5] = Enhancer:Insulin:lactose 25:75:0

| Molecule | Effect (decrease in blood glucose level) [1, 4] | usefulness as enhancer of insulin absorption in the lung [1] | further results |
| --- | --- | --- | --- |
| CCCCCCCCCC(=O)OC[C@H](COP(=O)([O-])OCC[N+](C)(C)C)OC(=O)CCCCCCCCC [Didecanoylphospatidylcholine] |  |  | Effect (decrease in blood glucose level) ([1]; Enhancer:Insulin:lactose 4:4:94): − |
| CCCCCCCC(=O)OCC(COP(=O)([O-])OCC[N+](C)(C)C)OC(=O)CCCCCCC (stereo not shown) [Dioctanoylphosphatidylcholine] |  |  | Effect (decrease in blood glucose level) [1, 3]: (+) |
| CCCCCCCCOC1O[C@H](CO)[C@@H](O)[C@H](O)[C@H]1O (stereo partly shown) [Octylglucopyranoside] | (+) | some absorption enhancing properties |  |
| CCCCCCCCCC(=O)[O-].[K+] [Potassium caprate] |  | effective | Effect (decrease in blood glucose level) ([1]; Enhancer:Insulin:lactose 27:73:0): + |
| CCCCCCCC/C=C\CCCCCCCC(=O)[O-].[K+] [Potassium oleate] | + |  |  |
| CCCCCCCCCC(=O)[O-].[Na+] [Sodium caprate] | + | perform well | improvement in absorption of insulin ([2]; insulin/sodium caprate w/w 50/50 (50% sodium caprate)): Significant improvement; improvement in absorption of insulin ([2]; insulin/sodium caprate w/w 75/25 (25% sodium caprate)): Significant improvement; improvement in absorption of insulin ([2]; insulin/sodium caprate w/w 82.5/17.5 (17.5% sodium caprate)): intermediate; improvement in absorption of insulin ([2]; insulin/sodium caprate w/w 90/10 (10% sodium caprate)): poor improvement; lowest effective concentration of sodium caprate ([2]; proportion of enhancer relative solely to insulin, 'probably 20-25%'): 15-25%; Effect (decrease in blood glucose level) ([1]; Enhancer:Insulin:lactose 10:90:0): (+); Effect (decrease in blood glucose level) ([1]; Enhancer:Insulin:lactose 17.5:82.5:0): (+); Effect (decrease in blood glucose level) [1, 5]: +; amount of insulin which passed across the monolayer, compared to absence of any enhancer (CaCo-2 cell monolayer; 16 mM sodium caprate): doubled; amount of marker (mannitol) which appears on the basolateral side, insulin added (CaCo-2 cell monolayer; 60 min at 37° C., 1:3 sodium caprate:insulin by weight, FIG. 8): true even when insulin is added; amount of marker (mannitol) which appears on the basolateral side (CaCo-2 cell monolayer; 60 min at 37° C., up to 16 mM sodium caprate, FIG. 7): dependent upon the concentration of enhancer used |
| CCCCCCCC(=O)[O-].[Na+] [Sodium caprylate] |  |  | Effect (decrease in blood glucose level) [1, 5]: + |
| C[C@H](CCC(=O)NCC(=O)[O-])[C@H]1CC[C@H]2[C@@H]3[C@H](O)C[C@@H]4C[C@H](O)CC[C@]4(C)[C@H]3C[C@H](O)[C@]12C.[Na+] [Sodium glycocholate] | + | effectively enhance insulin absorption in the lung |  |
| CCCCCCCCCCCC(=O)[O-].[Na+] [Sodium laurate] |  | perform well | Effect (decrease in blood glucose level) [1, 5]: (+) |
| CCCCCCCCCCCCCC(=O)[O-].[Na+] [Sodium myristate] |  | perform well | Effect (decrease in blood glucose level) ([1]; Enhancer:Insulin:lactose 30:70:0): + |
| C[C@H](CCC(=O)NCCS(=O)(=O)O)[C@H]1CC[C@H]2[C@@H]3[C@H](O)C[C@@H]4C[C@H](O)CC[C@]4(C)[C@H]3C[C@H](O)[C@]12C [Sodium taurocholate] | + | effectively enhance insulin absorption in the lung |  |
| CC(=O)OC1CC2(C)C(CC(O)C3C4(C)CCC(O)C(C)C4CCC32C)C1=C(CCCC(C)C)C(=O)NCCS(=O)(=O)O (stereo not shown) [Sodium taurodihydrofusidate] |  | effectively enhance insulin absorption in the lung | Effect (decrease in blood glucose level) [1, 3]: + |
| C[C@H](CCC(=O)[O-])[C@H]1CC[C@H]2[C@@H]3[C@@H](O)C[C@@H]4C[C@H](O)CC[C@]4(C)[C@H]3CC[C@]12C.[Na+] [Sodium ursodeoxycholate] | + | effectively enhance insulin absorption in the lung |  |
| Dimethyl-β-cyclodextrin |  | absorption enhancing effect | Effect (decrease in blood glucose level) ([1]; Enhancer:Insulin:lactose 75:25:0): + |
| Lysine caprate |  | effective | Effect (decrease in blood glucose level) ([1]; Enhancer:Insulin:lactose 35:65:0): + |
| Lysophosphatidylcholine | + | effective enhancer |  |
| sodium salt of ethylenediaminetetraacetic acid |  | ineffective |  |
